# Experimental data as given in ChEMBL document CHEMBL3045445, “Structural features of GABAA receptor antagonists: pharmacophore modeling and 3D-QSAR studies” (Med Chem Res, 2013).
# Experiment: Displacement of [3H]muscimol from GABAA receptor in Sprague-Dawley rat brain membrane`after 60 mins by TopCount microplate scintillation counting analysis
SMILES,Ki [nM],pKi
CC1(c2cc(O)no2)CCNCC1,37000,4.43
Oc1noc(C2CCNCC2)c1CCc1ccc2ccccc2c1,490,6.31
Oc1noc(C2CCNCC2)c1CCCC(c1ccccc1)c1ccccc1,700,6.16
Oc1noc(C2CCNCC2)c1C(c1ccccc1)c1ccccc1,960,6.02
On1nc(-c2ccccc2)c(C2CCNCC2)c1Cc1cccc2ccccc12,1500,5.82
Oc1noc(C2CCNCC2)c1-c1cccc2ccccc12,820,6.09
Oc1noc(C2CCNCC2)c1Cc1ccc2c(Br)cccc2c1,80,7.1

# Results, then the compound that gave them:
Ki [nM],pKi,SMILES
28,7.55,N#Cc1c(Cc2c(O)noc2C2CCNCC2)ccc2ccccc12
45,7.35,Oc1noc(C2CCNCC2)c1Cc1ccc2cccc(Br)c2c1
22,7.66,On1nc(Cc2cccc3ccccc23)c(C2CCNCC2)c1-c1ccccc1
100,7,Oc1noc(C2CCNCC2)c1Cc1cccc2ccccc12
36,7.44,Oc1noc(C2CCNCC2)c1-c1ccc2ccccc2c1
19,7.72,Oc1noc(C2CCNCC2)c1Cc1ccc2ccccc2c1F
109,6.96,Oc1noc(C2CCNCC2)c1Cc1ccc2ccc(Br)cc2c1
16,7.8,Oc1noc(C2CCNCC2)c1Cc1ccc2ccccc2c1Cl
28,7.55,CSc1c(Cc2c(O)noc2C2CCNCC2)ccc2ccccc12
21,7.68,Oc1noc(C2CCNCC2)c1Cc1ccc2ccccc2c1-c1ccccc1
